{
  "source": "patent US9616062B2",
  "about": "“Cyclin dependent kinase inhibitors and methods of use” (priority 2009, dated 2017)",
  "key": {"[1]": {"test_system": "irradiated (6.5 Gy) wild type mice (FVB/n)", "test": "Myelosuppression assay: complete blood counts after sub-lethal irradiation, with or without erythropoietin", "format": "in vivo, mouse", "settings": "PD0332991 150 mg/kg oral gavage just prior to irradiation, EPO at 72, 96, 120 h post-irradiation, day 17", "description": "FIG. 1: CDK4/6 inhibition potentiates the efficacy of erythropoietin-mediated recovery of the erythroid cell lineage following DNA damage. Cohorts (8 mice per cohort) of irradiated (6.5 Gy) wild type mice (FVB/n) are given placebo, erythropoietin (EPO), a CDK4/6 inhibitor (PD0332991), or a combination of CDK4/6 inhibitor and EPO (PD0332991+EPO). Serial blood draws are performed at day 17 after treatment and complete blood counts assessed to determine the number of red blood cells, various leukocytes subpopulations, and platelets. The effect of treatment on platelets is shown in the panel on the upper left, red blood cells (RBC) in the panel on the upper right, hemoglobin (Hb) in the panel on the lower left, and hematocrit (HCT) in the panel on the lower right. Error bars represent +/−SEM. […]\nBaseline complete blood cell (CBC) anaylsis was performed on a subset of mice prior to drug administration. […] Blood was analyzed using a Hemavet CBC-Diff Veterinary Hematology System (Drew Scientific Inc., Dallas, Tex., United States of America). […]\nCohorts of FVB wild type mice were given placebo or CDK4/6 inhibitor (PD0332991, 150 mg/kg oral gavage) just prior to receiving a sub-lethal dose of irradiation (6.5 Gcy). […] Complete blood counts (CBCs) were assessed to determine the number of red blood cells, various leukocytes subpopulations and platelets."}, "[2]": {"test_system": "primary human renal proximal tubule epithelial cells", "test": "Cell proliferation, CellTiter-Glo, 72 hours", "format": "cell-based", "settings": "0, 10 nM-3 μM, 72 hours post exposure", "description": "FIG. 3: CDK4/6 inhibition blocks proliferation of primary human renal proximal tubule epithelial cells. Cells were treated with varying concentrations of PD0332991 for 72 hours. Following incubation, cell proliferation was quantified using CellTiter-Glo® (Promega, Madison, Wis., United States of America). Data represent the mean of four replicates (relative light units, RLU) +/−standard deviation.\nPrimary normal human renal proximal epithelial cells (American Type Culture Collection (ATCC), Manassas, Va., United States of America) were cultured in renal epithelial cell basal media supplemented with renal epithelial cell growth kit according to the manufacturer's recommendations. […] For the γH2AX assay, cells were fixed, permeabilized, and stained with anti-γH2AX as per γH2AX Flow Kit (Millipore, Billerica, Mass., United States of America). γH2AX levels were assessed by flow cytometry. Cell proliferation was assessed by seeding 1×10^3 cells per well in a 96-well tissue culture plate in 100 μL of growth medium. […] At the end of the recovery period, cell number was quantified using CellTiter-Glo® (Promega, Fitchburg, Wis., United States of America) or WST-1 reagent (TaKaRa Bio USA, Madison, Wis., United States of America). […] 100 μL of TOXILIGHT™ reagent is added and incubated for 5 minutes and read in a luminometer at 1 second/well. […]"}, "[3]": {"test_system": "RB-deficient small cell lung cancer cell lines (H69, H82, H209, H345)", "test": "SCLC cell proliferation, WST-1, RB-deficient lines", "format": "cell-based", "settings": "100 nM, all four RB-deficient cell lines", "description": "FIG. 8: CDK4/6 inhibition potentiates proliferation of Rb deficient cells. […] Cell proliferation was assessed using WST-1 reagent. Each data point represents the mean of four replicates +/−SEM. CDK4/6 inhibition increases cell proliferation of RB-deficient cell lines.\nPrimary normal human renal proximal epithelial cells (American Type Culture Collection (ATCC), Manassas, Va., United States of America) were cultured in renal epithelial cell basal media supplemented with renal epithelial cell growth kit according to the manufacturer's recommendations. […] For the γH2AX assay, cells were fixed, permeabilized, and stained with anti-γH2AX as per γH2AX Flow Kit (Millipore, Billerica, Mass., United States of America). γH2AX levels were assessed by flow cytometry. Cell proliferation was assessed by seeding 1×10^3 cells per well in a 96-well tissue culture plate in 100 μL of growth medium. […] At the end of the recovery period, cell number was quantified using CellTiter-Glo® (Promega, Fitchburg, Wis., United States of America) or WST-1 reagent (TaKaRa Bio USA, Madison, Wis., United States of America). Cellular cytotoxicity was assessed using the TOXILIGHT™ Bioassay kit (Lonza, Basel, Switzerland) which measures cytolysis by quantifying the release of Adenylate Kinase into the culture media. […] 100 μL of TOXILIGHT™ reagent is added and incubated for 5 minutes and read in a luminometer at 1 second/well. […]"}},
  "data": [
    {"smiles": "CC(=O)c1c(C)c2cnc(Nc3ccc(N4CCNCC4)cn3)nc2n(C2CCCC2)c1=O", "note": "[PD0332991, 6-acetyl-8-cyclopentyl-5-methyl-2-(5-piperazin-1-yl-pyridin-2-ylamino)-8H-pyrido-[2,3-d]-pyrimidin-7-one]", "values": [
      {"measurement": "platelet counts (CBC)", "setting": "[1]", "value": "improved platelet counts"},
      {"measurement": "inhibition of cell proliferation vs DMSO control", "setting": "[2]", "value": "clear dose dependent inhibition of cell proliferation"},
      {"measurement": "cell proliferation (WST-1) vs DMSO", "setting": "[3]", "value": "increased"}
    ]}
  ]
}
